Experimental data as given in patent US20230053152A1, “Novel Quercetin Redox Derivative And Use Thereof As BET Inhibitor” (Benobio Co., Ltd., priority 2019, published 2023).

Assays:
[1] = target: T1, BRD3 (BD1) (Homo sapiens, UniProt Q15059); experiment: Binding inhibition of BRD3 (BD1), same manner as Test Example 1; conditions: AlphaScreen, acetyl-histone H4 peptide
T1 construct: on the BRD3 (BD1, BD2, BD1+BD2) protein; GST

[2] = target: T2, BRD3 (BD1 + BD2) (Homo sapiens, UniProt Q15059); experiment: Binding inhibition of BRD3 (BD1+BD2), same manner as Test Example 1; conditions: AlphaScreen, acetyl-histone H4 peptide
T2 construct: on the BRD3 (BD1, BD2, BD1+BD2) protein; GST
T2 sequence (Q15059 34-415 limits assumed): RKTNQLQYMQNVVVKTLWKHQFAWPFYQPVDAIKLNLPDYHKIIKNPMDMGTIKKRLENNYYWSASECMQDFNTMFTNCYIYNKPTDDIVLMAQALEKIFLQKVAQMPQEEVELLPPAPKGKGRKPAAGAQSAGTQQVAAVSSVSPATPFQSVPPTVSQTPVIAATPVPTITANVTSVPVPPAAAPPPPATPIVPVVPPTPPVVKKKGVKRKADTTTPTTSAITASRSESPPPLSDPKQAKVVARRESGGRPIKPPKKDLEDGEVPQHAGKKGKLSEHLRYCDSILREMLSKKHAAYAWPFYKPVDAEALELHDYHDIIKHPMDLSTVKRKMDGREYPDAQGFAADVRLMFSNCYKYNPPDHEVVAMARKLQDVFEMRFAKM

[3] = target: T3, BRD2 (BD1) (Homo sapiens, UniProt P25440); experiment: AlphaScreen binding inhibition of GST-BRD2 (BD1) and tetraacetylated histone H4 peptide; conditions: for IC50: AlphaScreen, acetyl-histone H4 peptide
T3 construct: 100 nM GST-BRD2 (BD1, BD2, BD1+BD2)
T3 sequence (P25440 74-180 limits assumed): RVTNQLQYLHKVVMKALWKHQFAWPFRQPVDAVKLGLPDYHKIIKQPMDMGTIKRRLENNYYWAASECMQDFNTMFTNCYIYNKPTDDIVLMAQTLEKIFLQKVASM

[4] = target: T4, BRD4 (BD1 + BD2) (Homo sapiens, UniProt O60885); experiment: Binding inhibition of BRD4 (BD1+BD2), same manner as Test Example 1; conditions: AlphaScreen, acetyl-histone H4 peptide
T4 construct: on the BRD4 (BD1, BD2, BD1+BD2) protein; GST

[5] = target: T5, BRD4 (BD1) (Homo sapiens, UniProt O60885); experiment: Binding inhibition of BRD4 (BD1), same manner as Test Example 1; conditions: AlphaScreen, acetyl-histone H4 peptide
T5 construct: on the BRD4 (BD1, BD2, BD1+BD2) protein; GST

[6] = target: T6, BRD2 (BD2) (Homo sapiens, UniProt P25440); experiment: AlphaScreen binding inhibition of GST-BRD2 (BD2) and tetraacetylated histone H4 peptide; conditions: acetyl-histone H4 peptide
T6 construct: 100 nM GST-BRD2 (BD1, BD2, BD1+BD2)
T6 sequence (P25440 344-453 limits assumed): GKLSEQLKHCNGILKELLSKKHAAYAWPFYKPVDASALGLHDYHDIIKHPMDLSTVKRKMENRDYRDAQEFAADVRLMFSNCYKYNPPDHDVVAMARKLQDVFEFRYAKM

[7] = target: T7, BRD2 (BD1 + BD2) (Homo sapiens, UniProt P25440); experiment: AlphaScreen binding inhibition of GST-BRD2 (BD1+BD2) and tetraacetylated histone H4 peptide
T7 construct: 100 nM GST-BRD2 (BD1, BD2, BD1+BD2)
T7 sequence (P25440 74-453 limits assumed): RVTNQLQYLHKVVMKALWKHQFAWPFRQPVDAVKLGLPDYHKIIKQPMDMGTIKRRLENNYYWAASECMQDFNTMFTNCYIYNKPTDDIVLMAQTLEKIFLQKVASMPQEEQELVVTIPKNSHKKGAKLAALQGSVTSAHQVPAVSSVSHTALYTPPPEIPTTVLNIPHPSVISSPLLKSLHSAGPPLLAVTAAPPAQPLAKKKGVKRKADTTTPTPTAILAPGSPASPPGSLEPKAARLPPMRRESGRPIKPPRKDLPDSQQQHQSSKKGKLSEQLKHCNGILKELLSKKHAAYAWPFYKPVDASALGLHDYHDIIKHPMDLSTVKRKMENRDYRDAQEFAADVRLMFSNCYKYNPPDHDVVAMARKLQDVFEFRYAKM

[8] = target: T8, BRD3 (BD2) (Homo sapiens, UniProt Q15059); experiment: Binding inhibition of BRD3 (BD2), same manner as Test Example 1; conditions: AlphaScreen, acetyl-histone H4 peptide
T8 construct: on the BRD3 (BD1, BD2, BD1+BD2) protein; GST
T8 sequence (Q15059 306-415 limits assumed): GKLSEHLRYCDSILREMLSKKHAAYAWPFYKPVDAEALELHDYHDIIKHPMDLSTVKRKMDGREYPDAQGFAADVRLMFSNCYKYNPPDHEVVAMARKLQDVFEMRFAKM

T1 sequence (Q15059 34-140 limits assumed): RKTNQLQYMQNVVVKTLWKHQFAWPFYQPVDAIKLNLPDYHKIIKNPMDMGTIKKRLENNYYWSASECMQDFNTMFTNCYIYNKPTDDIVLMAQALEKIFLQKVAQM

Row | SMILES | IC50 [1] | IC50 [3] | further results
1 | O=c1c(O)c(-c2ccc3cc[nH]c3c2)oc2cc(O)cc(O)c12 [BBC0115, 3,5,7-trihydroxy-2-(1H-indol-6-yl)chromen-4-one] | 7.18 µM | 5.24 µM | IC50 [2]: 86 µM
2 | COc1cc(OC)c2[nH]c(-c3cc(C)c(OCCO)c(C)c3)nc2c1 [BBC0206, reference compound] | – | – | IC50 [4]: > 20 µM; IC50 [5]: > 50 µM
3 | O=c1c(O)c(-c2ccc3occc3c2)oc2cc(O)cc(O)c12 [BBC0310, 2-(benzofuran-5-yl)-3,5,7-trihydroxy-chromen-4-one] | 3.26 µM | 10.1 µM | –
4 | O=c1c(O)c(-c2ccc(OC3COC3)c(O)c2)oc2cc(O)cc(O)c12 [BBC0301, 3,5,7-trihydroxy-2-[13-hydroxy-4-(oxetan-3-yloxy)phenyl]chromen-4-one] | – | 16.9 µM | IC50 [2]: 29.4 µM; IC50 [4]: 30.3 µM
5 | O=c1[nH]c2ccc(-c3oc4cc(O)cc(O)c4c(=O)c3O)cc2o1 [BBC0113, 6-(3,5,7-trihydroxy-4-oxo-chromen-2-yl)-3H-1,3-benzoxazol-2-one] | 17.1 µM | 12.2 µM | IC50 [6]: 5.11 µM
6 | O=c1c(O)c(-c2ccc3[nH]ccc3c2)oc2cc(O)cc(O)c12 [BBC0114, 3,5,7-trihydroxy-2-(1H-indol-5-yl)chromen-4-one] | 7.98 µM | 4.14 µM | IC50 [2]: 51.3 µM
7 | O=c1c(O)c(-c2ccc(O)c(OC3COC3)c2)oc2cc(O)cc(O)c12 [BBC0303, 3,5,7-trihydroxy-2-[4-hydroxy-3-(oxetan-3-yloxy)phenyl]chromen-4-one] | 3.18 µM | 8.35 µM | IC50 [2]: 95.6 µM
8 | O=c1c(O)c(-c2ccc3ccoc3c2)oc2cc(O)cc(O)c12 [BBC0313, 2-(benzofuran-6-yl)-3,5,7-trihydroxy-chromen-4-one] | 1.9 µM | 4.63 µM | IC50 [6]: 0.499 µM
9 | O=c1c(O)c(-c2ccc3c(c2)CCCO3)oc2cc(O)cc(O)c12 [BBC0309] | 1.46 µM | 7.03 µM | –
10 | O=c1c(O)c(-c2ccc3c(c2)CCO3)oc2cc(O)cc(O)c12 [BBC0311, 2-(2,3-dihydrobenzofuran-5-yl)-3,5,7-trihydroxy-chromen-4-one] | 7.2 µM | 5.85 µM | IC50 [6]: 3.79 µM
11 | O=c1c(O)c(-c2ccc(OC3COC3)cc2)oc2cc(O)cc(O)c12 [BBC0302, 3,5,7-trihydroxy-2-[4-(oxetan-3-yloxy)phenyl]chromen-4-one] | – | 2.4 µM | –
12 | O=c1[nH]c2ccc(-c3oc4cc(O)cc(O)c4c(=O)c3O)cc2[nH]1 [BBC0110, 5-(3,5,7-trihydroxy-4-oxo-chromen-2-yl)-1,3-dihydrobenzimidazol-2-one] | – | 9.06 µM | IC50 [2]: 20.1 µM; IC50 [4]: 38.6 µM; IC50 [5]: 15.5 µM
13 | O=c1c(O)c(-c2ccc(O)c(O)c2)oc2cccc(O)c12 [BBC0104, 2-(3,4-dihydroxyphenyl)-3,5-dihydroxy-chromen-4-one] | – | 8.52 µM | –
14 | COc1cc(OC)c2c(=O)[nH]c(-c3cc(C)c(OCCO)c(C)c3)cc2c1 [BBC0204, reference compound] | – | – | IC50 [4]: 97.2 µM; IC50 [5]: 35.1 µM
15 | O=c1c(O)c(-c2ccc3[nH]cnc3c2)oc2cc(O)cc(O)c12 [BBC0109, 2-(1H-benzodiimidazol-5-yl)-3,5,7-trihydroxy-4H-chromen-4-one] | – | 8.63 µM | IC50 [2]: 20.8 µM; IC50 [4]: 15.6 µM; IC50 value of BRD2 (BD1) as compared to the compound of Comparative Example 1 ([3]; relative to RVX-208): about 30%; IC50 ([7]; AlphaScreen, acetyl-histone H4 peptide): 9.7 µM; IC50 value of BRD2 (BD1+BD2) as compared to the compound of Comparative Example 1 ([7]; relative to RVX-208): about 30%
16 | Cc1cc(-c2oc3cc(O)cc(O)c3c(=O)c2O)cc(OC2COC2)c1O [BBC0307] | 9.29 µM | 18.5 µM | IC50 [4]: 87.3 µM
17 | Cc1cc(-c2oc3cc(O)cc(O)c3c(=O)c2O)cc(O)c1OC1COC1 [BBC0305, 3,5,7-trihydroxy-2-[3-hydroxy-5-methyl-4-(oxetan-3-yloxy)phenyl]chromen-4-one] | 3 µM | 6.55 µM | –
18 | O=c1c(O)c(-c2ccc(O)c(O)c2)oc2cc(O)ccc12 [BBC0105, 2-(3,4-dihydroxyphenyl)-3,7-dihydroxy-chromen-4-one] | – | 8.88 µM | –
19 | O=c1c(O)c(-c2ccc3c(c2)OCC3)oc2cc(O)cc(O)c12 [BBC0312, 2-(2,3-dihydrobenzofuran-6-yl)-3,5,7-trihydroxy-chromen-4-one] | 2.64 µM | 3.69 µM | –
20 | COc1cc(OC)c2c(=O)[nH]c(-c3cc(C)c4c(c3)CCO4)nc2c1 [BBC0406, 5,7-dimethoxy-2-(7-methyl-2,3-dihydrobenzofuran-5-yl)-3H-quinazolin-4-one] | 11.1 µM | – | –
21 | Cc1cc(-c2oc3cc(O)cc(O)c3c(=O)c2O)cc(C)c1OC1COC1 [BBC0306, 2-[3,5-dimethyl-4-(oxetan-3-yloxy)phenyl]-3,5,7-trihydroxy-chromen-4-one] | 1.41 µM | 2.71 µM | IC50 [8]: 1.34 µM
